# Read-outs that look alike come from different tables or passages of the source.
# Tests used:
# [1] = tested on: S. aureus A9748; experiment: M.I.C. by tube dilution; format: cell-based; conditions: overnight 37° C.; for MIC: Staphylococcus aureus
# [2] = Blood levels in the mouse after oral administration; format: in vivo; conditions: mouse, oral, 100 mgm./kg.; for concentration at 0.5 h / concentration at 1 h / concentration at 2 h / concentration at 3.5 h: blood, 100 mg/kg, read-out: Blood Level; for concentration at 1 h: 1 hr. after administration; for concentration at 2 h: 2 hrs. after administration; for concentration at 3.5 h: 3.5 hrs. after administration
# Method: Blood levels in the mouse after oral administration were
# determined with the following results:
# [3] = tested on: E. coli A9675; experiment: M.I.C. by tube dilution; format: cell-based; conditions: at 10^-^4 dilution, overnight 37° C.; for MIC: Escherichia coli, A9675
# [4] = tested on: Ps. aeruginosa A9843A; experiment: M.I.C. by tube dilution; format: cell-based; conditions: Pseudomonas aeruginosa
# [5] = tested on: E. coli Juhl A15119; experiment: M.I.C. by tube dilution; format: cell-based; conditions: Escherichia coli, JUHLA15119
# [6] = tested on: D. pneumoniae A9585; experiment: M.I.C. by tube dilution; format: cell-based; conditions: Streptococcus pneumoniae, D. pneumoniae + 5% serum, 50% Nutrient Broth - 45% Antibiotic Assay Broth, overnight 37° C.
# [7] = tested on: S. aureus BX 1633-2 A9606; experiment: M.I.C. by tube dilution; format: cell-based; conditions: overnight 37° C.; for MIC: Staphylococcus aureus
# [8] = tested on: K. pneumoniae A9977; experiment: M.I.C. by tube dilution; format: cell-based; conditions: at 10^-^4 dilution, overnight 37° C.; for MIC: Klebsiella pneumoniae, A9977
# [9] = tested on: Sal. enteritidis A9531; experiment: M.I.C. by tube dilution; format: cell-based; conditions: at 10^-^4 dilution, overnight 37° C.; for MIC: Salmonella enterica, ENTERITIDIS
# [10] = tested on: Str. pyogenes A9604; experiment: M.I.C. by tube dilution; format: cell-based; conditions: Streptococcus pyogenes, Str. pyogenes + 5% serum, 50% Nutrient Broth - 45% Antibiotic Assay Broth, overnight 37° C.
# [11] = tested on: Ser. marcescens A20019; experiment: M.I.C. by tube dilution; format: cell-based; conditions: Serratia marcescens
# [12] = tested on: S. aureus Smith A9537; experiment: M.I.C. by tube dilution; format: cell-based; conditions: Staphylococcus aureus, overnight 37° C.
# [13] = tested on: Pr. mirabilis A9900; experiment: M.I.C. by tube dilution; format: cell-based; conditions: at 10^-^4 dilution, overnight 37° C.; for MIC: Proteus mirabilis, A9900
# [14] = tested on: Pr. morganii A15153; experiment: M.I.C. by tube dilution; format: cell-based; conditions: Morganella morganii
# [15] = tested on: K. pneumoniae A15130; experiment: M.I.C. by tube dilution; format: cell-based; conditions: at 10^-^4 dilution, overnight 37° C.; for MIC: Klebsiella pneumoniae, A15130
# [16] = tested on: S. aureus methicillin-resistant A15097; experiment: M.I.C. by tube dilution; format: cell-based; conditions: at 10^-^3 dilution, overnight 37° C.; for MIC: Staphylococcus aureus
# [17] = A9748, at 10^-^2 dilution, read-out: M.I.C.
# [18] = A9748, at 10^-^3 dilution, read-out: M.I.C.
# [19] = at 10^-^4 dilution, overnight 37° C., read-out: M.I.C.
# [20] = BX16332A9606, at 10^-^2 dilution, read-out: M.I.C.
# [21] = BX16332A9606, at 10^-^3 dilution, read-out: M.I.C.
# [22] = SMITHA9537, + 50% serum, at 10^-^4 dilution, read-out: M.I.C.
# [23] = SMITHA9537, at 10^-^4 dilution, read-out: M.I.C.
structure (smiles),measurement,setting,value
"N[C@@H](C(=O)NC1C(=O)N2C(C(=O)O)=C(CSC(=O)c3cscn3)CS[C@H]12)c1ccccc1 (stereo partly drawn) [Compound 591, 7-[D-(-)α-aminophenylacetamido]-3-(thiazol-4-yl)carbonylthiomethyl-3-cephem-4-carboxylic acid]",MIC,[1]; [17],16 µg/mL
same,MIC,[1]; [18],4 µg/mL
same,concentration at 0.5 h,[2]; 0.5 hrs. after administration,6500 ng/mL
same,concentration at 1 h,[2],7900 ng/mL
same,concentration at 2 h,[2],4400 ng/mL
same,concentration at 3.5 h,[2],3200 ng/mL
same,MIC,[3]; read-out: M.I.C.,4 µg/mL
same,MIC,[4],> 125 µg/mL
same,MIC,[5]; [19],1 µg/mL
same,MIC,[6],0.02 µg/mL
same,MIC,[7]; [20],2 µg/mL
same,MIC,[7]; [21],0.6 µg/mL
same,MIC,[8]; read-out: M.I.C.,1 µg/mL
same,MIC,[9]; read-out: M.I.C.,0.16 µg/mL
same,MIC,[10],0.02 µg/mL
same,MIC,[11],125 µg/mL
same,MIC,[12]; [22],8 µg/mL
same,MIC,[12]; [23],0.3 µg/mL
same,MIC,[13]; read-out: M.I.C.,1 µg/mL
same,MIC,[14]; [19],32 µg/mL
same,MIC,[15]; read-out: M.I.C.,8 µg/mL
same,MIC,[16],2 µg/mL
"N[C@@H](C(=O)NC1C(=O)N2C(C(=O)O)=C(CSC(=O)c3cncs3)CS[C@H]12)c1ccccc1 (stereo partly drawn) [Compound 602, 7-[D-(-)-α-aminophenylacetamido]-3-(thiazol-5-yl)carbonylthiomethyl-3-cephem-4-carboxylic acid]",MIC,[1]; [17],63 µg/mL
same,MIC,[1]; [18],8 µg/mL
same,concentration at 0.5 h,[2]; 0.5 hrs. after administration,11700 ng/mL
same,concentration at 1 h,[2],17600 ng/mL
same,concentration at 2 h,[2],9700 ng/mL
same,concentration at 3.5 h,[2],3300 ng/mL
same,MIC,[3]; read-out: M.I.C.,16 µg/mL
same,MIC,[4],> 125 µg/mL
same,MIC,[5]; [19],4 µg/mL
same,MIC,[6],0.6 µg/mL
same,MIC,[7]; [20],16 µg/mL
same,MIC,[7]; [21],1.3 µg/mL
same,MIC,[8]; read-out: M.I.C.,16 µg/mL
same,MIC,[9]; read-out: M.I.C.,0.3 µg/mL
same,MIC,[10],0.6 µg/mL
same,MIC,[11],> 125 µg/mL
same,MIC,[12]; [22],> 63 µg/mL
same,MIC,[12]; [23],0.3 µg/mL
same,MIC,[13]; read-out: M.I.C.,16 µg/mL
same,MIC,[14],125 µg/mL
same,MIC,[15]; read-out: M.I.C.,32 µg/mL
same,MIC,[16],4 µg/mL
"Cc1nc(C(=O)SCC2=C(C(=O)O)N3C(=O)C(NC(=O)[C@H](N)c4ccccc4)[C@H]3SC2)cs1 (stereo partly drawn) [Compound 607, 7-[D-α-aminophenylacetamido]-3-(2-methylthiazol-4-yl)carbonylthiomethyl-3-cephem-4-carboxylic acid]",MIC,[1]; [17],16 µg/mL
same,MIC,[1]; [18],8 µg/mL
same,concentration at 0.5 h,[2]; 0.5 hrs. after administration,1200 ng/mL
same,concentration at 1 h,[2],1400 ng/mL
same,concentration at 2 h,[2],1300 ng/mL
same,concentration at 3.5 h,[2],1000 ng/mL
same,Blood Level,[2]; 0.5 hrs. after administration,1.2 µg/mL
same,MIC,[3]; read-out: M.I.C.,16 µg/mL
same,MIC,[4],> 125 µg/mL
same,MIC,[5]; [19],8 µg/mL
same,MIC,[6],0.16 µg/mL
same,MIC,[7]; [20],4 µg/mL
same,MIC,[7]; [21],0.6 µg/mL
same,MIC,[8]; read-out: M.I.C.,16 µg/mL
same,MIC,[9]; read-out: M.I.C.,0.6 µg/mL
same,MIC,[10],0.16 µg/mL
same,MIC,[11],> 125 µg/mL
same,MIC,[12]; [22],63 µg/mL
same,MIC,[12]; [23],0.3 µg/mL
same,MIC,[13]; read-out: M.I.C.,8 µg/mL
same,MIC,[14]; [19],32 µg/mL
same,MIC,[15],125 µg/mL
same,MIC,[16],8 µg/mL
"CC1=C(C(=O)O)N2C(=O)[C@@H](NC(=O)[C@H](N)c3ccccc3)[C@H]2SC1 [cephalexin, reference compound]",MIC,"[1]; A9748, at 10^-^2 dilution",125 µg/mL
same,MIC,"[1]; A9748, at 10^-^3 dilution",32 µg/mL
same,M.I.C.,[1]; at 10^-^2 dilution,63 µg/mL
same,M.I.C.,[1]; at 10^-^3 dilution,63 µg/mL
same,MIC,[3],16 µg/mL
same,M.I.C.,[3],32 µg/mL
same,MIC,[4],> 125 µg/mL
same,MIC,[5],8 µg/mL
same,MIC,"[7]; BX16332A9606, at 10^-^2 dilution",8 µg/mL
same,MIC,"[7]; BX16332A9606, at 10^-^3 dilution",4 µg/mL
same,M.I.C.,[7]; at 10^-^2 dilution,4 µg/mL
same,M.I.C.,[7]; at 10^-^3 dilution,2 µg/mL
same,MIC,[8],8 µg/mL
same,M.I.C.,[8],4 µg/mL
same,MIC,[9],4 µg/mL
same,M.I.C.,[9],2 µg/mL
same,MIC,[11],> 125 µg/mL
same,MIC,"[12]; SMITHA9537, + 50% serum, at 10^-^4 dilution",2.5 µg/mL
same,MIC,[13],4 µg/mL
same,M.I.C.,[13],8 µg/mL
same,MIC,[14],> 125 µg/mL
same,MIC,[15],16 µg/mL
same,M.I.C.,[15],32 µg/mL
same,MIC,[16],32 µg/mL
same,M.I.C.,[16],63 µg/mL

# Source: patent US3985740A, “7-[D-(α-amino-α-phenyl-, 2-thienyl- and 3-thienylacetamido)]-3-(5-methylthiazol-2-yl)carbonylthiomethyl-3-cephem -4-carboxylic acids” (Bristol-Myers Company, priority 1974, dated 1976)
